In brackets after ≈: the same amount, converted by molar mass. Activity calls are given as the source filed them. The rule behind the calls is not given here.
How the values were obtained:
[1] = system: T47D; assay: Antiproliferative activity against human T47D cells assessed as inhibition of cell growth at 1 to 4 uM incubated for 5 days by CCK-8 assay; format: functional, cell-based; conditions: dose 1-4 µM, time 5.0 day
[2] = Acute toxicity in ICR mouse assessed as heart lesions at 5000 mg/kg, po administered as single dose and measured every 2 days for 14 days by H and E staining based analysis; format: organism-based; conditions: in vivo, 336 h, time 14 day
[3] = Acute toxicity in ICR mouse assessed as change in lung weight at 1000 to 5000 mg/kg, po administered as single dose and measured every 2 days for 14 days; format: organism-based; conditions: in vivo, 336 h, dose 1000-5000 mg/kg, time 14 day
[4] = Tmax in Sprague-Dawley rat 10 mg/kg, po by LC/MS/MS analysis; format: ADME, organism-based; conditions: in vivo
[5] = AUC (0 to infinity) in Sprague-Dawley rat 10 mg/kg, po by LC/MS/MS analysis; format: ADME, organism-based; parameters: time infinity, dose 10 mg/kg, route po; conditions: in vivo
[6] = Cmax in Sprague-Dawley rat 10 mg/kg, po by LC/MS/MS analysis; format: ADME, organism-based; parameters: dose 10 mg/kg, route po; conditions: in vivo
[7] = Half life in Sprague-Dawley rat 1 mg/kg, iv by LC/MS/MS analysis; format: ADME, organism-based; conditions: in vivo
[8] = system: T47D; assay: Antiproliferative activity against human T47D cells assessed as cell growth inhibition incubated for 72 hrs by CCK-8 assay; format: functional
[9] = system: T47D; assay: Downregulation c-MYC level in human T47D cells incubated for 24 hrs by Western blot analysis; format: functional, cell-based; conditions: dose 1-4 µM, DDE = dose-dependent effect
[10] = system: T47D; assay: Induction of cell cycle arrest in human T47D cells assessed as accumulation of cells at G2 phase at 4 uM incubated for 24 hrs by propidium iodide staining based flow cytometry analysis (reference value: 16.57%); format: functional
[11] = Thermodynamic solubility of the compound incubated for 24 hrs under shaking condition by LC-MS/MS analysis; format: physicochemical; conditions: read-out: Therm_solubility
[12] = system: MCF7; assay: Induction of cell cycle arrest in human MCF7 cells assessed as accumulation of cells at G1 phase at 1.5 uM incubated for 24 hrs by propidium iodide staining based flow cytometry analysis (reference value: 57.38%); format: functional
[13] = Acute toxicity in ICR mouse assessed as spleen lesions at 5000 mg/kg, po administered as single dose and measured every 2 days for 14 days by H and E staining based analysis; format: organism-based; conditions: in vivo, 336 h, time 14 day
[14] = Acute toxicity in ICR mouse assessed as change in spleen weight at 1000 to 5000 mg/kg, po administered as single dose and measured every 2 days for 14 days; format: organism-based; conditions: in vivo, 336 h, dose 1000-5000 mg/kg, time 14 day
[15] = system: T47D; assay: Inhibition of clone formation in human T47D cells at 1 to 8 uM by crystal voilet staining based analysis; format: functional, cell-based; conditions: dose 1-8 µM, time 2.0 weeks
[16] = target: CYP3A4 (Homo sapiens, UniProt P08684); assay: Inhibition of CYP3A4 in human liver microsomes using testosterone as substrate at 10 uM preincubated for 5 mins followed by NADPH addition by LC-MS/MS analysis relative to control; format: ADME, Microsome; conditions: probe testosterone
Chain of CYP3A4 (P08684 whole entry): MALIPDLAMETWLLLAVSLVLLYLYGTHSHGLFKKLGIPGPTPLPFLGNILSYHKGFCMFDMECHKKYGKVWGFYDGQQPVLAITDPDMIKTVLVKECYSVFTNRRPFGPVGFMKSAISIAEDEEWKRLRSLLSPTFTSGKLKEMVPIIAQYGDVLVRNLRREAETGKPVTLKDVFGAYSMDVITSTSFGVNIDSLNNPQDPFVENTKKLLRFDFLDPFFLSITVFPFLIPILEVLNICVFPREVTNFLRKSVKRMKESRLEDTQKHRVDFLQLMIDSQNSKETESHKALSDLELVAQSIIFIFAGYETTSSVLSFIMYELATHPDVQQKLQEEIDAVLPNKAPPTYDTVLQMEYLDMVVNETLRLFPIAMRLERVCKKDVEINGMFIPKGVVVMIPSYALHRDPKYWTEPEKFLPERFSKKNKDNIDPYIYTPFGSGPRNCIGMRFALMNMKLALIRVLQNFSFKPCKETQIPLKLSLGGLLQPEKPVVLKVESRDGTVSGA

[17] = Oral bioavailability in Sprague-Dawley rat 10 mg/kg by LC/MS/MS analysis; format: ADME, organism-based; conditions: in vivo
[18] = target: T1, Retinoblastoma-associated protein (Homo sapiens) (UniProt P06400); assay: Inhibition of RB phosphorylation in human MCF7 cells at 1.5 to 5 uM incubated for 24 hrs by Western blot analysis; format: cell-based; conditions: dose 1.5-5 µM
T1 sequence (whole entry): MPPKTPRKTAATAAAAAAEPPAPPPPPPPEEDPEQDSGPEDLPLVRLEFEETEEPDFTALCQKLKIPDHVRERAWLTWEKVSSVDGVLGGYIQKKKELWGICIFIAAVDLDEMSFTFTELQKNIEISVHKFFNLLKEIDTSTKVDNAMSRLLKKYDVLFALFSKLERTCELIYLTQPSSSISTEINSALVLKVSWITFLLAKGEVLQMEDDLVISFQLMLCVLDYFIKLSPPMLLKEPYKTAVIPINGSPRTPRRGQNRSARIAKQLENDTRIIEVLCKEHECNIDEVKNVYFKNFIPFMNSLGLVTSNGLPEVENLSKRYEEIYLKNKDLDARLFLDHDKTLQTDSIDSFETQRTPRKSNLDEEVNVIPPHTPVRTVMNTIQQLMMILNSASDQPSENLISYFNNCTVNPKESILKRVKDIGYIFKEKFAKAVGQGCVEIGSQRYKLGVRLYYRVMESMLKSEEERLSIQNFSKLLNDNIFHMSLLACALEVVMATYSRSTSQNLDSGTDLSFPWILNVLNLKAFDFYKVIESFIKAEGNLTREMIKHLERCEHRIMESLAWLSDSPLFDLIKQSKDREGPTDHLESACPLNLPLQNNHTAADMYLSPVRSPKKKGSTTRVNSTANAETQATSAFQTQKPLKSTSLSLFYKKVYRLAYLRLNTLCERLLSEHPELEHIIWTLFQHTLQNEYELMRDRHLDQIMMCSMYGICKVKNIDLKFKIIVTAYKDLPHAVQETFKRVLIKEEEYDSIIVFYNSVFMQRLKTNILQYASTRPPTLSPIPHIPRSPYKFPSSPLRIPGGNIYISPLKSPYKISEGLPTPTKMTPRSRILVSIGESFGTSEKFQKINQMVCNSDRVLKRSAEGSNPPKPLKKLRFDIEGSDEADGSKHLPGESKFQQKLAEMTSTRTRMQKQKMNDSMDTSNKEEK

[19] = Acute toxicity in ICR mouse assessed as heart kidney at 5000 mg/kg, po administered as single dose and measured every 2 days for 14 days by H and E staining based analysis; format: organism-based; conditions: in vivo, 336 h, time 14 day
[20] = MRT (0 to infinity) in Sprague-Dawley rat 1 mg/kg, iv by LC/MS/MS analysis; format: ADME, organism-based; conditions: in vivo
[21] = target: CDK6/cyclin D1 (Homo sapiens, UniProt Q00534); assay: Inhibition of CDK6/cyclin-D1 (unknown origin) in presence of ATP by time resolved-FRET assay; format: protein-complex assay
Chain of CDK6/cyclin D1 (P24385 whole entry): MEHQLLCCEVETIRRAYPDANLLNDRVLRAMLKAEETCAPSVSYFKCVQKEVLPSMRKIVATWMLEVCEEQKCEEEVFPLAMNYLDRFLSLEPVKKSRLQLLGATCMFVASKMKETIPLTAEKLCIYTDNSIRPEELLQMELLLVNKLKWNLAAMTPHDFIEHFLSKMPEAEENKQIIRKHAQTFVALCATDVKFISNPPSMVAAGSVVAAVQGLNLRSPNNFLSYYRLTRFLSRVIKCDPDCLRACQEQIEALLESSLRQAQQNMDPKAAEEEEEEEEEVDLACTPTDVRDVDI
Chain of CDK6/cyclin D1 (Q00534 whole entry): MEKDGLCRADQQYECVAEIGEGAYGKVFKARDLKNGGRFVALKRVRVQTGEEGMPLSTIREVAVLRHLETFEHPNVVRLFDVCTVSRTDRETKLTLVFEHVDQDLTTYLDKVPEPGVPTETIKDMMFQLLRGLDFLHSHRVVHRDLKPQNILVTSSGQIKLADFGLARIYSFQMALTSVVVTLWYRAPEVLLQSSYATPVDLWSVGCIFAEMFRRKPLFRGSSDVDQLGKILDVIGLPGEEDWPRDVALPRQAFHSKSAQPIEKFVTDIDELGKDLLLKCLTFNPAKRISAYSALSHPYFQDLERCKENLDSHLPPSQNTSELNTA

[22] = system: MCF7; assay: Antiproliferative activity against human MCF7 cells assessed as cell growth inhibition incubated for 72 hrs by CCK-8 assay; format: functional
[23] = Acute toxicity in ICR mouse assessed as animal death at 5000 mg/kg, po administered as single dose and measured every 2 days for 14 days; format: organism-based; conditions: in vivo, 336 h, time 14 day
[24] = Cmax in Sprague-Dawley rat 1 mg/kg, iv by LC/MS/MS analysis; format: ADME, organism-based; parameters: dose 1 mg/kg, route iv; conditions: in vivo
[25] = Acute toxicity in ICR mouse assessed as lung lesions at 5000 mg/kg, po administered as single dose and measured every 2 days for 14 days by H and E staining based analysis; format: organism-based; conditions: in vivo, 336 h, time 14 day
[26] = MRT (0 to infinity) in Sprague-Dawley rat 10 mg/kg, po by LC/MS/MS analysis; format: ADME, organism-based; conditions: in vivo
[27] = system: MCF7; assay: Downregulation cyclin D1 level in human MCF7 cells incubated for 24 hrs by Western blot analysis; format: functional, cell-based; conditions: dose 1.5-5 µM, DDE = dose-dependent effect
[28] = Acute toxicity in ICR mouse assessed as change in heart weight at 1000 to 5000 mg/kg, po administered as single dose and measured every 2 days for 14 days; format: organism-based; conditions: in vivo, 336 h, dose 1000-5000 mg/kg, time 14 day
[29] = Half life in Sprague-Dawley rat 10 mg/kg, po by LC/MS/MS analysis; format: ADME, organism-based; conditions: in vivo

**Q.** With `CCN1CCc2cc(-c3nc(Nc4ccc(N5CCNCC5)cn4)ncc3F)ccc2C1=O` as the compound, how does the inhibition [1] read?
**A.** Its inhibition is “Active”.

**Q.** And the Activity [2]?
**A.** Its Activity is “Non-Toxic”.

**Q.** And the Activity [3]?
**A.** The Activity was “Non-Toxic”.

**Q.** What about the Tmax [4] of the same compound?
**A.** The Tmax was 6 h.

**Q.** What about the AUC(0-inf) [5] of the same compound?
**A.** Its AUC(0-inf) is 1.61 µg·h/mL.

**Q.** What about the Cmax [6] of the same compound?
**A.** The Cmax was 0.144 µg/mL.

**Q.** And the half-life [7]?
**A.** Its half-life is 2.62 h.

**Q.** What about the GI50 [8] of the same compound?
**A.** The GI50 was 0.887 µM.

**Q.** And the Activity [9]?
**A.** The Activity was “Dde”.

**Q.** And the Activity [10]?
**A.** Its Activity is 5.87%.

**Q.** What about the solubility thermodynamic at 24 h [11] of the same compound?
**A.** The solubility thermodynamic at 24 h was 1.02 mg/mL (≈ 2280 µM).

**Q.** And the Activity [12]?
**A.** Its Activity is 79.52%.

**Q.** What about the Activity [13] of the same compound?
**A.** Its Activity is “Non-Toxic”.

**Q.** And the Activity [14]?
**A.** The Activity was “Non-Toxic”.

**Q.** And the inhibition [15]?
**A.** The inhibition was “Active”.

**Q.** And the inhibition at 10 µM [16]?
**A.** The inhibition at 10 µM was 12.4%.

**Q.** And the bioavailability [17]?
**A.** The bioavailability was 43%.

**Q.** What about the inhibition [18] of the same compound?
**A.** Its inhibition is “Active”.

**Q.** And the Activity [19]?
**A.** Its Activity is “Non-Toxic”.

**Q.** What about the MRT inf [20] of the same compound?
**A.** The MRT inf was 3.5 h.

**Q.** What about the IC50 [21] of the same compound?
**A.** Its IC50 is 0.016 µM.

**Q.** And the GI50 [22]?
**A.** The GI50 was 2.7 µM.

**Q.** What about the Activity [23] of the same compound?
**A.** Its Activity is “Non-Toxic”.

**Q.** And the Cmax [24]?
**A.** Its Cmax is 0.291 µg/mL.

**Q.** And the Activity [25]?
**A.** The Activity was “Non-Toxic”.

**Q.** And the MRT inf [26]?
**A.** The MRT inf was 9.11 h.

**Q.** And the Activity [27]?
**A.** Its Activity is “Dde”.

**Q.** What about the Activity [28] of the same compound?
**A.** Its Activity is “Non-Toxic”.

**Q.** What about the half-life [29] of the same compound?
**A.** The half-life was 3.59 h.

Source: ChEMBL document CHEMBL5096234, “Discovery, Optimization, and Evaluation of Selective CDK4/6 Inhibitors for the Treatment of Breast Cancer” (J Med Chem, 2022)
